Reference: PubChem BioAssay (NCI)
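A five-concentration, 48-hour dose response in 96-well plates underlies each endpoint, interpolated linearly between surrounding concentrations. At the GI50, growth is halved. TGI denotes the concentration required for complete inhibition of growth.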

Legend:
Assay in all cases: NCI tumour cell line growth inhibition, 48 h
SF-268 CNS = tested on: SF-268 CNS
NCI-H226 lung = tested on: NCI-H226 lung
MDA-MB-435 = tested on: MDA-MB-435
DU-145 prostate = tested on: DU-145 prostate
MOLT-4 leukemia = tested on: MOLT-4 leukemia
UO-31 renal = tested on: UO-31 renal
SF-539 CNS = tested on: SF-539 CNS
BT-549 breast = tested on: BT-549 breast
SK-MEL-28 melanoma = tested on: SK-MEL-28 melanoma
HOP-92 NSCLC = tested on: HOP-92 NSCLC
CCRF-CEM leukemia = tested on: CCRF-CEM leukemia
HT29 colon = tested on: HT29 colon
COLO 205 colon = tested on: COLO 205 colon
SK-MEL-2 melanoma = tested on: SK-MEL-2 melanoma
LOX IMVI melanoma = tested on: LOX IMVI melanoma
MCF7 breast = tested on: MCF7 breast
HCT-15 colon = tested on: HCT-15 colon
SK-MEL-5 melanoma = tested on: SK-MEL-5 melanoma
SNB-19 CNS = tested on: SNB-19 CNS
HCT-116 colon = tested on: HCT-116 colon
U251 CNS = tested on: U251 CNS
EKVX NSCLC = tested on: EKVX NSCLC
ACHN renal = tested on: ACHN renal
A549 NSCLC = tested on: A549 NSCLC
SW-620 colon = tested on: SW-620 colon
A498 renal = tested on: A498 renal
NCI/ADR-RES ovarian = tested on: NCI/ADR-RES ovarian
RXF 393 renal = tested on: RXF 393 renal
SK-OV-3 ovarian = tested on: SK-OV-3 ovarian

For `COC(=O)CC1=C(C)/C(=C/c2[nH]c(-c3ccc[nH]3)cc2OC)N=C1C`, which GI50 (SF-268 CNS) is on record?
Its GI50 is 388 nM.

And the TGI (SF-268 CNS)?
Its TGI is 10900 nM.

And the GI50 (NCI-H226 lung)?
The GI50 was 68 nM.

What about the TGI (NCI-H226 lung) of the same compound?
Its TGI is 881 nM.

And the GI50 (MDA-MB-435)?
The GI50 was 311 nM.

And the TGI (MDA-MB-435)?
The TGI was 1950 nM.

What about the GI50 (DU-145 prostate) of the same compound?
The GI50 was 315 nM.

And the TGI (DU-145 prostate)?
Its TGI is 12800 nM.

And the GI50 (MOLT-4 leukemia)?
The GI50 was 170 nM.

What about the TGI (MOLT-4 leukemia) of the same compound?
Its TGI is 3480 nM.

What about the GI50 (UO-31 renal) of the same compound?
Its GI50 is 187 nM.

And the TGI (UO-31 renal)?
Its TGI is 633 nM.

And the GI50 (SF-539 CNS)?
Its GI50 is 331 nM.

What about the TGI (SF-539 CNS) of the same compound?
The TGI was 2270 nM.

And the GI50 (BT-549 breast)?
The GI50 was 196 nM.

And the TGI (BT-549 breast)?
Its TGI is 4290 nM.

And the GI50 (SK-MEL-28 melanoma)?
Its GI50 is 456 nM.

What about the TGI (SK-MEL-28 melanoma) of the same compound?
Its TGI is 2530 nM.

What about the GI50 (HOP-92 NSCLC) of the same compound?
Its GI50 is 57.1 nM.

What about the TGI (HOP-92 NSCLC) of the same compound?
The TGI was 337 nM.

And the GI50 (CCRF-CEM leukemia)?
Its GI50 is 76.8 nM.

And the TGI (CCRF-CEM leukemia)?
The TGI was 5340 nM.

And the GI50 (HT29 colon)?
The GI50 was 37.5 nM.

What about the TGI (HT29 colon) of the same compound?
The TGI was 1190 nM.

And the GI50 (COLO 205 colon)?
Its GI50 is 123 nM.

What about the TGI (COLO 205 colon) of the same compound?
The TGI was 814 nM.

What about the GI50 (SK-MEL-2 melanoma) of the same compound?
The GI50 was 149 nM.

And the TGI (SK-MEL-2 melanoma)?
Its TGI is 354 nM.

And the GI50 (LOX IMVI melanoma)?
The GI50 was 42 nM.

And the TGI (LOX IMVI melanoma)?
Its TGI is 159 nM.

What about the GI50 (MCF7 breast) of the same compound?
Its GI50 is 82.8 nM.

And the TGI (MCF7 breast)?
The TGI was 733 nM.

And the GI50 (HCT-15 colon)?
The GI50 was 99.2 nM.

And the TGI (HCT-15 colon)?
Its TGI is 894 nM.

And the GI50 (SK-MEL-5 melanoma)?
The GI50 was 46.1 nM.

And the TGI (SK-MEL-5 melanoma)?
The TGI was 107 nM.

What about the GI50 (SNB-19 CNS) of the same compound?
Its GI50 is 1350 nM.

What about the TGI (SNB-19 CNS) of the same compound?
The TGI was 14200 nM.

What about the GI50 (HCT-116 colon) of the same compound?
The GI50 was 81.9 nM.

What about the TGI (HCT-116 colon) of the same compound?
Its TGI is 1160 nM.

And the GI50 (U251 CNS)?
Its GI50 is 175 nM.

And the TGI (U251 CNS)?
The TGI was 1810 nM.

And the GI50 (EKVX NSCLC)?
Its GI50 is 584 nM.

And the TGI (EKVX NSCLC)?
The TGI was 10100 nM.

What about the GI50 (ACHN renal) of the same compound?
Its GI50 is 247 nM.

And the TGI (ACHN renal)?
The TGI was 1290 nM.

And the GI50 (A549 NSCLC)?
The GI50 was 248 nM.

What about the TGI (A549 NSCLC) of the same compound?
The TGI was 3690 nM.

What about the GI50 (SW-620 colon) of the same compound?
The GI50 was 148 nM.

What about the TGI (SW-620 colon) of the same compound?
Its TGI is 1360 nM.

And the GI50 (A498 renal)?
The GI50 was 1020 nM.

And the TGI (A498 renal)?
Its TGI is 5390 nM.

And the GI50 (NCI/ADR-RES ovarian)?
Its GI50 is 324 nM.

And the TGI (NCI/ADR-RES ovarian)?
Its TGI is 2340 nM.

And the GI50 (RXF 393 renal)?
Its GI50 is 61.1 nM.

What about the TGI (RXF 393 renal) of the same compound?
Its TGI is 1080 nM.

What about the GI50 (SK-OV-3 ovarian) of the same compound?
Its GI50 is 581 nM.

What about the TGI (SK-OV-3 ovarian) of the same compound?
Its TGI is 4190 nM.
